Where a name gives a salt, the structure may show the parent alone.
Target: T1, recombinant human ALK enzyme (Homo sapiens, UniProt Q9UM73)
T1 construct: purchased Carna Biosciences 08-518
Experiment: ALK WT cell free assay (TR-FRET)
Type: biochemical
Settings: 1 μM ATP; for IC50: 10 point dose response, read-out: IC50 value (in range); for inhibition at 1 µM: compound 1 μM, read-out: Percentage Inhibition 1 μM; for inhibition at 1 µM / inhibition at 0.1 µM: 30 min pre-incubation; for inhibition at 0.1 µM: compound 100 nM, read-out: Percentage Inhibition 100 nM
Procedure: The ALK WT cell free assay was set up to evaluate the effects of these compounds as inhibitors of ALK enzyme. The enzymatic assay was standardized using recombinant human ALK enzyme (Cat#08-518) from Carna Biosciences using Ultra Light Poly GT (Cat# TRF […]) from Perkin Elmer as a substrate. TR-FRET (Time resolved fluorescence resonance energy transfer) detection technology was used for the read out. […] The assay reaction time with the substrate was 30 minutes after which the antibody detection mix is added. The TR-FRET signal (Excitation at 340 nm, Emission at 615 nm and 665 nm) was read with 50 μs delay time on Victor^3 V fluorimeter. The data is calculated using the ratio of reading at 665 nm to 615 nm. […] Compounds were screened at 100 nM and 1 μM concentrations with pre-incubation of the enzymes with compound for 30 minutes.

T1 sequence (Q9UM73 1058-1620 limits assumed): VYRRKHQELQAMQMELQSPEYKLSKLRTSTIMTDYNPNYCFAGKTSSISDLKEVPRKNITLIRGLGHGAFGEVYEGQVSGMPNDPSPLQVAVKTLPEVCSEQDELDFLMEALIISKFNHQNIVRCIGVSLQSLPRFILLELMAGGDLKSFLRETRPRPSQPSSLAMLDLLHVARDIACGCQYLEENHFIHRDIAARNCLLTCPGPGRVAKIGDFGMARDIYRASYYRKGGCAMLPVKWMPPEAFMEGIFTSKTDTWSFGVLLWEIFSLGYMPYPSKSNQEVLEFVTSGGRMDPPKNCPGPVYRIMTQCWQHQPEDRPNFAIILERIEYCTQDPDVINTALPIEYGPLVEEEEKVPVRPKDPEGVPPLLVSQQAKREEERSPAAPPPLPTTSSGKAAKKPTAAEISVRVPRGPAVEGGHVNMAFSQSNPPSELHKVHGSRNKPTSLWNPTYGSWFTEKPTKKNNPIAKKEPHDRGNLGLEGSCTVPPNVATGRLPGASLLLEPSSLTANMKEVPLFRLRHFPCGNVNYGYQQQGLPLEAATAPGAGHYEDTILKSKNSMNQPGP

SMILES | IC50 | inhibition at 1 µM | inhibition at 0.1 µM
Cn1cc(-c2cnc3[nH]cc(-c4cnn(Cc5ccccc5F)c4)c3c2)cn1 [Example-1, 3-(1-(2-fluorobenzyl)-1H-pyrazol-4-yl)-5-(1-methyl-1H-pyrazol-4-yl)-1H-pyrrolo[2,3-b]pyridine] | 50 to 200 nM | 95% | 
Cn1cc(-c2cnc3[nH]cc(-c4cnn(Cc5cccc(F)c5)c4)c3c2)cn1 [Example-3] | < 50 nM | 100% | 
Cn1cc(-c2cnc3[nH]cc(-c4cnn(Cc5ccc(F)cc5)c4)c3c2)cn1 [Example-4] | 50 to 200 nM | 93% | 
Cn1cc(-c2cnc3[nH]cc(-c4cnn(Cc5cccc(C#N)c5)c4)c3c2)cn1 [Example-5] | < 50 nM | 95% | 
COC(=O)c1cccc(Cn2cc(-c3c[nH]c4ncc(-c5cnn(C)c5)cc34)cn2)c1 [Example-6] |  | 42% | 
Cc1nn(Cc2cc(Cl)ccc2F)cc1-c1c[nH]c2ncc(-c3cnn(C)c3)cc12 [Example-7] | > 200 nM | 93% | 45%
Cn1cc(-c2cnc3[nH]cc(-c4cnn(Cc5ccccc5)c4)c3c2)cn1 [Example-8] | 50 to 200 nM | 98% | 
Cn1cc(-c2cnc3[nH]cc(-c4cnn(Cc5ccc(C(C)(C)C)cc5)c4)c3c2)cn1 [Example-9, 3-(1-(4-(tert-butyl)benzyl)-1H-pyrazol-4-yl)-5-(1-methyl-1H-pyrazol-4-yl)-1H-pyrrolo[2,3-b]pyridine] |  | 21% | 
Cn1cc(-c2cnc3[nH]cc(-c4cnn(Cc5cc(F)ccc5F)c4)c3c2)cn1 [Example-10] | < 50 nM | 98% | 
Cn1cc(-c2cnc3[nH]cc(-c4cnn(Cc5cccc(C(F)(F)F)c5)c4)c3c2)cn1 [Example-11] | > 200 nM | 77% | 
Cn1cc(-c2cnc3[nH]cc(-c4cnn(Cc5cccc(Cl)c5)c4)c3c2)cn1 [Example-13] | < 50 nM | 96% | 
Cn1cc(-c2cnc3[nH]cc(-c4cnn(Cc5cc(F)cc(F)c5)c4)c3c2)cn1 [Example-14] | < 50 nM | 100% | 
Cn1cc(-c2cnc3[nH]cc(-c4cn(Cc5cccc(F)c5)nc4C(C)(C)C)c3c2)cn1 [Example-15] |  | 6% | 6%
Cn1cc(-c2cnc3[nH]cc(-c4cnn(Cc5cccc([N+](=O)[O-])c5)c4)c3c2)cn1 [Example-16, 5-(1-methyl-1H-pyrazol-4-yl)-3-(1-(3-nitrobenzyl)-1H-pyrazol-4-yl)-1H-pyrrolo[2,3-b]pyridine] | 50 to 200 nM | 92% | 49%
Cn1cc(-c2cnc3[nH]cc(-c4cn(Cc5cccc(F)c5)nc4C(F)(F)F)c3c2)cn1 [Example-17] | 50 to 200 nM | 89% | 62%
Cc1nn(Cc2cccc(F)c2)c(C)c1-c1c[nH]c2ncc(-c3cnn(C)c3)cc12 [Example-18] | < 50 nM | 96% | 79%

SMILES | IC50 | inhibition at 1 µM | inhibition at 0.1 µM
Cc1nn(Cc2cc(F)cc(F)c2)c(C)c1-c1c[nH]c2ncc(-c3cnn(C)c3)cc12 [Example-19] | < 50 nM | 96% | 80%
Cn1cc(-c2cnc3[nH]cc(-c4cnn(CCc5ccccc5)c4)c3c2)cn1 [Example-20A] | 50 to 200 nM | 92% | 53%
Cn1cc(-c2cnc3[nH]cc(-c4cnn(Cc5cccc(O)c5)c4)c3c2)cn1 [Example-20] | < 50 nM | 99% | 81%
Cn1cc(-c2cnc3[nH]cc(-c4cnn(Cc5cccc(N)c5)c4)c3c2)cn1 [Example-21, 3-((4-(5-(1-methyl-1H-pyrazol-4-yl)-1H-pyrrolo[2,3-b]pyridin-3-yl)-1H-pyrazol-1-yl)methyl)aniline] |  | 90% | 
Fc1cc(F)cc(Cn2cc(-c3c[nH]c4ncc(-c5cnn(C6CCNCC6)c5)cc34)cn2)c1 [Example-22, 3-(1-(3,5-difluorobenzyl)-1H-pyrazol-4-yl)-5-(1-(piperidin-4-yl)-1H-pyrazol-4yl)-1H-pyrrolo[2,3-b]pyridinehydrochloride] | < 50 nM | 100% | 97%
Fc1cccc(Cn2cc(-c3c[nH]c4ncc(-c5cnn(C6CCNCC6)c5)cc34)cn2)c1 [Example-23] | < 50 nM | 94% | 80%
Cc1nn(Cc2cccc(F)c2)c(C)c1-c1c[nH]c2ncc(-c3cnn(C4CCNCC4)c3)cc12 [Example-24] | < 50 nM | 94% | 76%
Cc1nn(Cc2cccc(O)c2)c(C)c1-c1c[nH]c2ncc(-c3cnn(C4CCNCC4)c3)cc12 [Example-25] | 50 to 200 nM | 95% | 70%
Cc1nn(Cc2cccc(F)c2)cc1-c1c[nH]c2ncc(-c3cnn(C4CCNCC4)c3)cc12 [Example-26] | < 50 nM | 96% | 79%
Cc1c(-c2c[nH]c3ncc(-c4cnn(C5CCNCC5)c4)cc23)cnn1Cc1cccc(F)c1 [Example-27] | < 50 nM | 98% | 79%
OCCn1cc(-c2cnc3[nH]cc(-c4cnn(Cc5cccc(F)c5)c4)c3c2)cn1 [Example-28, 2-(4-(3-(1-(3-fluorobenzyl)-1H-pyrazol-4-yl)-1H-pyrrolo[2,3-b]pyridin-5-yl)-1H-pyrazol-1-yl)ethanol] | < 50 nM | 98% | 96%
Cc1nn(Cc2cccc(F)c2)c(C)c1-c1c[nH]c2ncc(-c3cnn(CCO)c3)cc12 [Example-29] | < 50 nM | 100% | 73%
OCCCn1cc(-c2cnc3[nH]cc(-c4cnn(Cc5cccc(F)c5)c4)c3c2)cn1 [Example-30] | < 50 nM | 99% | 88%
c1ccc(CCn2cc(-c3c[nH]c4ncc(-c5cnn(C6CCNCC6)c5)cc34)cn2)cc1 [Example-31, 3-(1-phenethyl-1H-pyrazol-4-yl)-5-(1-(piperidin-4-yl)-1H-pyrazol-4-yl)-1H-pyrrolo[2,3-b]pyridine] | 50 to 200 nM | 95% | 59%
C[C@H](O)CN1CCC(n2cc(-c3cnc4[nH]cc(-c5cnn(Cc6cccc(F)c6)c5)c4c3)cn2)CC1 [Example-32, (S)-1-(4-(4-(3-(1-(3-fluorobenzyl)-1H-pyrazol-4-yl)-1H-pyrrolo[2,3-b]pyridin-5-yl)-1H-pyrazol-1-yl)piperidin-1-yl)propan-2-ol] | < 50 nM | 99% | 90%

Reference: patent publication US20150183781A1, “5-(1H-Pyrazol-4-yl)-1H-Pyrrolo[2,3-b]Pyridine Derivatives as Kinase Inhibitors” (AURIGENE DISCOVERY TECHNOLOGIES LIMITED, priority 2012, published 2015)
